Source: patent publication US12582617B2, “Methods for treating cancer” (RADIUS PHARMACEUTICALS, INC., priority 2015, dated 2026)
Structures can show the parent of a compound that is named as a salt.

Experiment: Phase 1 dose escalation study: safety, treatment related AEs
Assay type: in vivo
Description: The subjects were 40-75 years old with BMI of 18.0-30 kg/m^2. Subjects having evidence of clinically relevant pathology, increased risk of stroke or of history venous thromboembolic events, or use of concomitant medication less than 14 days prior to admission to clinical research center (paracetamol allowed up to 3 days prior) were excluded.
The subjects were treated with placebo or at least one dose p.o., q.d. after a light breakfast for 7 days at dose levels of 200 mg, 500 mg, 750 mg and 1000 mg, respectively.

[1] = 200 to 1000 mg p.o., q.d., 7 days

Structure (SMILES): CCNCCc1ccc(CN(CC)c2cc(OC)ccc2[C@@H]2CCc3cc(O)ccc3C2)cc1 [RAD1901, (6R)-6-(2-(N-(4-(2-(ethylamino)ethyl)benzyl)-N-ethylamino)-4-methoxyphenyl)-5,6,7,8-tetrahydronaphthalen-2-ol dihydrochloride]
- Abdominal distension (treatment related AE) (750 mg, Gr3): 0 n(%)
- Abdominal pain (treatment related AE) (750 mg, Gr3): 0 n(%)
- Diarrhoea (treatment related AE) (750 mg, Gr3): 0 n(%)
- Dizziness (treatment related AE) (750 mg, Gr3): 0 n(%)
- Dyspepsia (treatment related AE) (750 mg, Gr3): 0 n(%)
- Dysphagia (treatment related AE) (750 mg, Gr3): 0 n(%)
- Flatulance (treatment related AE) (750 mg, Gr3): 0 n(%)
- Headache (treatment related AE) (750 mg, Gr3): 0 n(%)
- Hiccups (treatment related AE) (750 mg, Gr3): 0 n(%)
- Hot flush (treatment related AE) (750 mg, Gr3): 0 n(%)
- Myalgia (treatment related AE) (750 mg, Gr3): 0 n(%)
- Nausea (treatment related AE) (750 mg, Gr3): 0 n(%)
- Odynophagia (treatment related AE) (750 mg, Gr3): 0 n(%)
- Oesophageal pain (treatment related AE) (750 mg, Gr3): 0 n(%)
- Salivary hypersecretion (treatment related AE) (750 mg, Gr3): 0 n(%)
- Sensation of a foreign body (treatment related AE) (750 mg, Gr3): 0 n(%)
- Vomiting (treatment related AE) (750 mg, Gr3): 0 n(%)
- Abdominal discomfort (treatment related AE) (1000 mg, Gr1): 0 n(%)
- Abdominal distension (treatment related AE) (1000 mg, Gr1): 2 (29) n(%)
- Abdominal pain (treatment related AE) (1000 mg, Gr1): 1 (14) n(%)
- Diarrhoea (treatment related AE) (1000 mg, Gr1): 3 (43) n(%)
- Dizziness (treatment related AE) (1000 mg, Gr1): 1 (14) n(%)
- Dyspepsia (treatment related AE) (1000 mg, Gr1): 1 (14) n(%)
- Dysphagia (treatment related AE) (1000 mg, Gr1): 0 n(%)
- Flatulance (treatment related AE) (1000 mg, Gr1): 0 n(%)
- Headache (treatment related AE) (1000 mg, Gr1): 2 (29) n(%)
- Hiccups (treatment related AE) (1000 mg, Gr1): 2 (29) n(%)
- Hot flush (treatment related AE) (1000 mg, Gr1): 1 (14) n(%)
- Myalgia (treatment related AE) (1000 mg, Gr1): 0 n(%)
- Nausea (treatment related AE) (1000 mg, Gr1): 4 (57) n(%)
- Odynophagia (treatment related AE) (1000 mg, Gr1): 1 (14) n(%)
- Oesophageal pain (treatment related AE) (1000 mg, Gr1): 1 (14) n(%)
- Salivary hypersecretion (treatment related AE) (1000 mg, Gr1): 2 (29) n(%)
- Sensation of a foreign body (treatment related AE) (1000 mg, Gr1): 4 (57) n(%)
- Vomiting (treatment related AE) (1000 mg, Gr1): 0 n(%)
- Abdominal discomfort (treatment related AE) (1000 mg, Gr2): 0 n(%)
- Abdominal distension (treatment related AE) (1000 mg, Gr2): 0 n(%)
- Abdominal pain (treatment related AE) (1000 mg, Gr2): 1 n(%)
- Diarrhoea (treatment related AE) (1000 mg, Gr2): 1 n(%)
- Dizziness (treatment related AE) (1000 mg, Gr2): 0 n(%)
- Dyspepsia (treatment related AE) (1000 mg, Gr2): 1 n(%)
- Dysphagia (treatment related AE) (1000 mg, Gr2): 0 n(%)
- Flatulance (treatment related AE) (1000 mg, Gr2): 0 n(%)
- Headache (treatment related AE) (1000 mg, Gr2): 0 n(%)
- Hiccups (treatment related AE) (1000 mg, Gr2): 0 n(%)
- Hot flush (treatment related AE) (1000 mg, Gr2): 0 n(%)
- Myalgia (treatment related AE) (1000 mg, Gr2): 0 n(%)
- Nausea (treatment related AE) (1000 mg, Gr2): 2 n(%)
- Odynophagia (treatment related AE) (1000 mg, Gr2): 1 n(%)
- Oesophageal pain (treatment related AE) (1000 mg, Gr2): 1 n(%)
- Salivary hypersecretion (treatment related AE) (1000 mg, Gr2): 0 n(%)
- Sensation of a foreign body (treatment related AE) (1000 mg, Gr2): 0 n(%)
- Vomiting (treatment related AE) (1000 mg, Gr2): 3 n(%)
- Abdominal discomfort (treatment related AE) (1000 mg, Gr3): 0 n(%)
- Abdominal distension (treatment related AE) (1000 mg, Gr3): 0 n(%)
- Abdominal pain (treatment related AE) (1000 mg, Gr3): 0 n(%)
- Diarrhoea (treatment related AE) (1000 mg, Gr3): 0 n(%)
- Dizziness (treatment related AE) (1000 mg, Gr3): 0 n(%)
- Dyspepsia (treatment related AE) (1000 mg, Gr3): 0 n(%)
- Dysphagia (treatment related AE) (1000 mg, Gr3): 0 n(%)
- Flatulance (treatment related AE) (1000 mg, Gr3): 0 n(%)
- Headache (treatment related AE) (1000 mg, Gr3): 0 n(%)
- Hiccups (treatment related AE) (1000 mg, Gr3): 0 n(%)
- Hot flush (treatment related AE) (1000 mg, Gr3): 0 n(%)
- Myalgia (treatment related AE) (1000 mg, Gr3): 0 n(%)
- Nausea (treatment related AE) (1000 mg, Gr3): 0 n(%)
- Odynophagia (treatment related AE) (1000 mg, Gr3): 0 n(%)
- Oesophageal pain (treatment related AE) (1000 mg, Gr3): 1 n(%)
- Salivary hypersecretion (treatment related AE) (1000 mg, Gr3): 0 n(%)
- Sensation of a foreign body (treatment related AE) (1000 mg, Gr3): 0 n(%)
- Vomiting (treatment related AE) (1000 mg, Gr3): 0 n(%)
- dose limiting toxicities (in words) [1]: No dose limiting toxicities (DLT) were observed
- maximum tolerated dose (MTD) (in words) [1]: not established
- Abdominal discomfort (treatment related AE) (Total Active, Gr1): 4 n(%)
- Abdominal distension (treatment related AE) (Total Active, Gr1): 5 n(%)
- Abdominal pain (treatment related AE) (Total Active, Gr1): 7 n(%)
- Diarrhoea (treatment related AE) (Total Active, Gr1): 6 n(%)
- Dizziness (treatment related AE) (Total Active, Gr1): 5 n(%)
- Dyspepsia (treatment related AE) (Total Active, Gr1): 13 n(%)
- Dysphagia (treatment related AE) (Total Active, Gr1): 4 n(%)
- Flatulance (treatment related AE) (Total Active, Gr1): 5 n(%)
- Headache (treatment related AE) (Total Active, Gr1): 9 n(%)
- Hiccups (treatment related AE) (Total Active, Gr1): 9 n(%)
- Hot flush (treatment related AE) (Total Active, Gr1): 11 n(%)
- Myalgia (treatment related AE) (Total Active, Gr1): 3 n(%)
- Nausea (treatment related AE) (Total Active, Gr1): 14 n(%)
- Odynophagia (treatment related AE) (Total Active, Gr1): 4 n(%)
- Oesophageal pain (treatment related AE) (Total Active, Gr1): 3 n(%)
- Salivary hypersecretion (treatment related AE) (Total Active, Gr1): 8 n(%)
- Sensation of a foreign body (treatment related AE) (Total Active, Gr1): 7 n(%)
- Vomiting (treatment related AE) (Total Active, Gr1): 3 n(%)
- Abdominal discomfort (treatment related AE) (Total Active, Gr2): 1 n(%)
- Abdominal distension (treatment related AE) (Total Active, Gr2): 1 n(%)
- Abdominal pain (treatment related AE) (Total Active, Gr2): 3 n(%)
- Diarrhoea (treatment related AE) (Total Active, Gr2): 1 n(%)
- Dizziness (treatment related AE) (Total Active, Gr2): 0 n(%)
- Dyspepsia (treatment related AE) (Total Active, Gr2): 3 n(%)
- Dysphagia (treatment related AE) (Total Active, Gr2): 3 n(%)
- Flatulance (treatment related AE) (Total Active, Gr2): 0 n(%)
- Headache (treatment related AE) (Total Active, Gr2): 1 n(%)
- Hiccups (treatment related AE) (Total Active, Gr2): 0 n(%)
- Hot flush (treatment related AE) (Total Active, Gr2): 0 n(%)
- Myalgia (treatment related AE) (Total Active, Gr2): 2 n(%)
- Nausea (treatment related AE) (Total Active, Gr2): 5 n(%)
- Odynophagia (treatment related AE) (Total Active, Gr2): 2 n(%)
- Oesophageal pain (treatment related AE) (Total Active, Gr2): 6 n(%)
- Salivary hypersecretion (treatment related AE) (Total Active, Gr2): 0 n(%)
- Sensation of a foreign body (treatment related AE) (Total Active, Gr2): 0 n(%)
- Vomiting (treatment related AE) (Total Active, Gr2): 10 n(%)
- Abdominal discomfort (treatment related AE) (Total Active, Gr3): 0 n(%)
- Abdominal distension (treatment related AE) (Total Active, Gr3): 0 n(%)
- Abdominal pain (treatment related AE) (Total Active, Gr3): 0 n(%)
- Diarrhoea (treatment related AE) (Total Active, Gr3): 0 n(%)
- Dizziness (treatment related AE) (Total Active, Gr3): 0 n(%)
- Dyspepsia (treatment related AE) (Total Active, Gr3): 0 n(%)
- Dysphagia (treatment related AE) (Total Active, Gr3): 0 n(%)
- Flatulance (treatment related AE) (Total Active, Gr3): 0 n(%)
- Headache (treatment related AE) (Total Active, Gr3): 0 n(%)
- Hiccups (treatment related AE) (Total Active, Gr3): 0 n(%)
- Hot flush (treatment related AE) (Total Active, Gr3): 0 n(%)
- Myalgia (treatment related AE) (Total Active, Gr3): 0 n(%)
- Nausea (treatment related AE) (Total Active, Gr3): 0 n(%)
- Odynophagia (treatment related AE) (Total Active, Gr3): 0 n(%)
- Oesophageal pain (treatment related AE) (Total Active, Gr3): 1 n(%)
- Salivary hypersecretion (treatment related AE) (Total Active, Gr3): 0 n(%)
- Sensation of a foreign body (treatment related AE) (Total Active, Gr3): 0 n(%)
- Vomiting (treatment related AE) (Total Active, Gr3): 1 n(%)
- Abdominal discomfort (treatment related AE) (Total TEAE, All): 5 (11)
- Abdominal distension (treatment related AE) (Total TEAE, All): 6 (14)
- Abdominal pain (treatment related AE) (Total TEAE, All): 10 (23)
- Diarrhoea (treatment related AE) (Total TEAE, All): 7 (16)
- Dizziness (treatment related AE) (Total TEAE, All): 5 (11)
- Dyspepsia (treatment related AE) (Total TEAE, All): 16 (36)
- Dysphagia (treatment related AE) (Total TEAE, All): 7 (16)
- Flatulance (treatment related AE) (Total TEAE, All): 5 (11)
- Headache (treatment related AE) (Total TEAE, All): 10 (23)
- Hiccups (treatment related AE) (Total TEAE, All): 9 (20)
- Hot flush (treatment related AE) (Total TEAE, All): 11 (25)
- Myalgia (treatment related AE) (Total TEAE, All): 5 (11)
- Nausea (treatment related AE) (Total TEAE, All): 19 (43)
- Odynophagia (treatment related AE) (Total TEAE, All): 6 (14)
- Oesophageal pain (treatment related AE) (Total TEAE, All): 10 (23)
- Salivary hypersecretion (treatment related AE) (Total TEAE, All): 8 (18)
- Sensation of a foreign body (treatment related AE) (Total TEAE, All): 7 (16)
- Vomiting (treatment related AE) (Total TEAE, All): 14 (32)
